Results as given in US5723485A, “1,2-Diarylindole derivatives, processes for their preparation and their uses in therapeutics” (Laboratories UPSA, priority 1996, dated 1998).

Legend:
[1] = molecular target: T1, COX-2 (purified enzyme from ewe placenta) (Ovis aries, UniProt P79208); experiment: Inhibition of COX-2 enzymatic activity (PGE2 determined by EIA); format: biochemical; conditions: arachidonic acid 4 μM, mean ± standard deviation, 4 determinations; for inhibition at 10 µM: 10^-5 M
T1 construct: purified enzyme from ewe placenta; from tissue; host or cells: ewe placenta
T1 sequence (P79208 17-603): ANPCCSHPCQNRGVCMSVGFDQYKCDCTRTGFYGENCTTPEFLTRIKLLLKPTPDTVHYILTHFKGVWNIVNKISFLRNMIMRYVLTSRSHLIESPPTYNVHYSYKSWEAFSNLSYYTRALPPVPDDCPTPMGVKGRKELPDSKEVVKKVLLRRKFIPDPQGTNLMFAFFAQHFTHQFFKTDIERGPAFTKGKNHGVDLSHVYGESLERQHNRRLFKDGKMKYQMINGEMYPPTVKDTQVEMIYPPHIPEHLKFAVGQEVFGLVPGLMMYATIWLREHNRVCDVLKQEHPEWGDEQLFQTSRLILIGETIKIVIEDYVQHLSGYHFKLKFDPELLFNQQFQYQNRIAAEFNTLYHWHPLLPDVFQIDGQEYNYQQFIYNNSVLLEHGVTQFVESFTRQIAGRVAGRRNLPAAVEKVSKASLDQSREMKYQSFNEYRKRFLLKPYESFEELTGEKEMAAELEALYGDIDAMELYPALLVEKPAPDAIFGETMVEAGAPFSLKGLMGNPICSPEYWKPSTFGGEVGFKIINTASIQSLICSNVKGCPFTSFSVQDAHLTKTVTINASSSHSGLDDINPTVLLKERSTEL
Protocol: (§1) The molecule studied is preincubated for 10 minutes at 25° C. with 2 U of COX-1 (purified enzyme from ram seminal vesicles) or 1 U of COX-2 (purified enzyme from ewe placenta). Arachidonic acid (6 μM for COX-1, 4 μM for COX-2) is added to the reaction medium and incubation is carried out for 5 minutes at 25° C. When incubation has ended, the enzymatic reaction is stopped by the addition of 1N HCl and the PGE2 produced is determined by EIA. The results are expressed as the percentage inhibition of the COX-1 and COX-2 enzymatic activities and correspond to mean (±) standard deviations from the average of 4 determinations.

[2] = molecular target: T2, COX-1 (purified enzyme from ram seminal vesicles) (Ovis aries, UniProt P05979); experiment: Inhibition of COX-1 enzymatic activity (PGE2 determined by EIA); format: biochemical; conditions: arachidonic acid 6 μM, mean ± standard deviation, 4 determinations; for inhibition at 10 µM: 10^-5 M; for inhibition at 0.1 µM: 10^-7 M
T2 construct: purified enzyme from ram seminal vesicles; from tissue; host or cells: ram seminal vesicles
T2 sequence (P05979 25-600): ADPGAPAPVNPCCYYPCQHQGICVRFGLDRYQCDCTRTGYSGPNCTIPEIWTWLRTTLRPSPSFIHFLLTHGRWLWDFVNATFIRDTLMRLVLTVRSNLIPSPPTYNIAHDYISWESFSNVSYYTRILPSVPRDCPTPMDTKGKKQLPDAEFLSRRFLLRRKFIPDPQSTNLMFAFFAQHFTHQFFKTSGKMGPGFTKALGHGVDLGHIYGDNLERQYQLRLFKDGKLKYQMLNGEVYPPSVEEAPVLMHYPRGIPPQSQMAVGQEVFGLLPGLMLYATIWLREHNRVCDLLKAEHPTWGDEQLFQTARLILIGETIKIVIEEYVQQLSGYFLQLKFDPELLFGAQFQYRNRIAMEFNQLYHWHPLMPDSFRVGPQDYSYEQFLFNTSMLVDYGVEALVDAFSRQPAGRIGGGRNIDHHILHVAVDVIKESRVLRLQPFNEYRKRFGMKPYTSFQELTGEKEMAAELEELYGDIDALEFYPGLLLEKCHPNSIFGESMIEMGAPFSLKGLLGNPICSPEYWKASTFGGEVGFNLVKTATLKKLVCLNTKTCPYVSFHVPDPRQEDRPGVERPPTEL
Protocol: as §1

| inhibition at 10 µM [1] | inhibition at 0.1 µM ([1]; 10^-7 M) | inhibition at 10 µM [2] | inhibition at 0.1 µM [2] | SMILES |
| --- | --- | --- | --- | --- |
| 95% |  |  |  | CS(=O)(=O)c1ccc(-c2cc3ccccc3n2-c2ccc(Cl)cc2)cc1 [Example 19, 1-(4-Chlorophenyl)-2-[4-(methylsulfonyl)phenyl]indole] |
| 83 ± 2% | 29 ± 2% | 36 ± 14% | 4 ± 4% | CS(=O)(=O)c1ccc(-c2cc3ccccc3n2-c2ccc(F)cc2)cc1 [Example 16, 1-(4-Fluorophenyl)-2-[4-(methylsulfonyl)phenyl]indole] |
| 89 ± 2% |  | 29 ± 5% | 2 ± 2% | Cc1ccc(-n2c(-c3ccc(S(C)(=O)=O)cc3)cc3ccccc32)cc1 [Example 17, 1-(4-Methylphenyl)-2-[4-(methylsulfonyl)phenyl]indole] |
| 88 ± 2% |  | 23 ± 6% | 2 ± 2% | CS(=O)(=O)c1ccc(-c2cc3ccccc3n2-c2ccccc2)cc1 [Example 18, 1-Phenyl-2-[4-(methylsulfonyl)phenyl]indole] |
